Test results as given in ChEMBL document CHEMBL4732046, “A red-light-activated sulfonamide porphycene for highly efficient photodynamic therapy against hypoxic tumor” (Eur J Med Chem, 2021).
Calls of active or inactive are those of the source. The rule behind the calls is not given here.

Tests used:
HeLa [1] = assay: Photocytotoxicity against human HeLa cells assessed as reduction in cell viability irradiated with 640 +/- 15 nm red LED for 4 hrs measured after 24 hrs by MTT assay; assay type: functional, cell-based; conditions: light or radiation study
[2] = Drug uptake in human A-375 cells lysosome after 24 hrs by Lyso-Tracker Red dye based confocal microscopic method; assay type: ADME, subcellular; conditions: a-375, 24 h
B16 [3] = assay: Induction of morphological changes in mouse B16 cells assessed as nuclear shrinkage at 200 to 400 nM incubated for 24 hrs by Hoechst 33258 staining based assay; assay type: functional, cell-based; conditions: dose 200-400 nM
B16 [4] = assay: Antiproliferative activity against mouse B16 cells assessed as inhibition of cell proliferation irradiated with 640 +/- 15 nm red LED for 4 hrs in presence of 30 uM L-histidine measured after 24 hrs by MTT assay; assay type: functional, cell-based
A-375 [5] = assay: Induction of apoptosis in human A-375 cells assessed as decrease in Bid level at 100 to 300 nM irradiated with 640 +/- 15 nm red LED for 1 hrs measured after 24 hrs by Western blot analysis; assay type: functional, cell-based; conditions: dose 100-300 nM
HeLa [6] = assay: Photocytotoxicity against human HeLa cells assessed as reduction in cell viability irradiated with 640 +/- 15 nm red LED for 4 hrs measured after 24 hrs under hypoxic condition by MTT assay; assay type: functional, cell-based; conditions: light or radiation study
[7] = Toxicity in C57BL/6 mouse assessed as effect on aspartate aminotransferase level measured after 2 days; conditions: in vivo, 48 h, time 2 day
B16 [8] = assay: Antiproliferative activity against mouse B16 cells assessed as inhibition of cell proliferation irradiated with 640 +/- 15 nm red LED for 4 hrs in presence of 30 uM L-histidine measured after 24 hrs under hypoxic condition by MTT assay; assay type: functional, cell-based
A-375 [9] = assay: Photocytotoxicity against human A-375 cells assessed as reduction in cell viability irradiated with 640 +/- 15 nm red LED for 4 hrs measured after 24 hrs under hypoxic condition by MTT assay; assay type: functional, cell-based; conditions: A-375, light or radiation study
A-375 [10] = assay: Induction of intracellular reactive oxygen species production in human A-375 cells assessed as […] membrane damage at 200 nM irradiated with 640 +/- 15 nm red LED for 1 hr measured after 4 hrs by mito-tracker green based confocal microscopic method; assay type: functional, cell-based
[11] = Drug uptake in mouse B16 cells upto 2 hrs by flow cytometric analysis; assay type: ADME, cell-based; conditions: b16, 2 h
A-375 [12] = assay: Induction of apoptosis in human A-375 cells assessed as apoptotic cells at 300 nM […] irradiated with 640 +/- 15 nm red LED for 1 hrs after 24 hrs by Annexin V-FITC/propidium iodide staining based flow cytometric analysis relative to control; assay type: functional, cell-based
B16 [13] = assay: Photocytotoxicity against mouse B16 cells assessed as reduction in cell viability irradiated with 640 +/- 15 nm red LED for 4 hrs measured after 24 hrs under hypoxic condition by MTT assay; assay type: functional, cell-based; conditions: B16, light or radiation study
A-375 [14] = assay: Induction of apoptosis in human A-375 cells assessed as increase in cytochrome c level at 100 to 300 nM irradiated with 640 +/- 15 nm red LED for 1 hrs measured after 24 hrs by Western blot analysis; assay type: functional, cell-based; conditions: dose 100-300 nM
A-375 [15] = assay: Photocytotoxicity against human A-375 cells assessed as reduction in cell viability irradiated with 640 +/- 15 nm red LED for 4 hrs measured after 24 hrs by MTT assay; assay type: functional, cell-based; conditions: A-375, light or radiation study
B16 [16] = assay: Induction of apoptosis in mouse B16 cells assessed as decrease in Bid level at 200 to 400 nM irradiated with 640 +/- 15 nm red LED for 1 hrs measured after 24 hrs by Western blot analysis; assay type: functional, cell-based; conditions: dose 200-400 nM
B16 [17] = assay: (§1) Antitumor activity against mouse B16 cells xenografted in C57BL/6J mouse assessed as reduction in tumor volume at high dose intratumorally once every 2 days for 2 weeks followed every dosing irradiated with 640 +/- 15 nm red LED for 4 hrs measured after 14 days treatment; assay type: functional, cell-based; conditions: time 14.0 day
A-375 [18] = assay: Antiproliferative activity against human A-375 cells assessed as inhibition of cell proliferation irradiated with 640 +/- 15 nm red LED for 4 hrs in presence of 30 uM L-histidine measured after 24 hrs under hypoxic condition by MTT assay; assay type: functional, cell-based
A-375 [19] = assay: Antiproliferative activity against human A-375 cells assessed as inhibition of cell proliferation irradiated with 640 +/- 15 nm red LED for 4 hrs in presence of 30 uM D-mannitol measured after 24 hrs by MTT assay; assay type: functional, cell-based
A-375 [20] = assay: Antiproliferative activity against human A-375 cells assessed as inhibition of cell proliferation irradiated with 640 +/- 15 nm red LED for 4 hrs in presence of 30 uM L-histidine measured after 24 hrs by MTT assay; assay type: functional, cell-based
A-375 [21] = assay: as §1, with “human A-375” for “mouse B16”, “BALB/c” for “C57BL/6J”, “as” for “as reduction in”, “growth inhibition by measuring nuclear TUNEL-positive treated” for “volume”; assay type: functional, cell-based; conditions: time 14.0 day
[22] = Drug uptake in human A-375 cells incubated for 24 hrs in presence of 2-deoxyglucose and sodium azide by mito-tracker green based confocal microscopic method; assay type: ADME, cell-based; conditions: a-375, 24 h
[23] = Toxicity in C57BL/6 mouse assessed as effect on creatine kinase level measured upto 14 days; conditions: in vivo, 336 h, time <=14 day
A-375 [24] = assay: Antitumor activity against human A-375 cells xenografted in BALB/c mouse assessed as tumor growth inhibition at 50 uM, IT once every 2 days for 2 weeks followed every dosing irradiated with 640 +/- 15 nm red LED for 4 hrs; assay type: functional, cell-based
[25] = Drug uptake in human A-375 cells mitochondria incubated for 24 hrs by mito-tracker green based confocal microscopic method; assay type: ADME; conditions: a-375, 24 h
A-375 [26] = assay: Antitumor activity against human A-375 cells xenografted in BALB/c mouse assessed as reduction in tumor volume at 50 uM, IT once every 2 days for 2 weeks followed every dosing irradiated with 640 +/- 15 nm red LED for 4 hrs; assay type: functional, cell-based
B16 [27] = assay: Induction of apoptosis in mouse B16 cells assessed as increase in cleaved caspase 9 level at 200 to 400 nM irradiated with 640 +/- 15 nm red LED for 1 hrs measured after 24 hrs by Western blot analysis; assay type: functional, cell-based; conditions: dose 200-400 nM
A-375 [28] = assay: as §1, with “human A-375” for “mouse B16”, “BALB/c” for “C57BL/6J”, “as” for “as reduction in”, “growth inhibition by measuring nuclear pyknosis treated” for “volume”; assay type: functional, cell-based; conditions: time 14.0 day
B16 [29] = assay: Induction of apoptosis in mouse B16 cells assessed as apoptotic cells at 400 nM irradiated with 640 +/- 15 nm red LED for 1 hrs after 24 hrs by Annexin V-FITC/propidium iodide staining based flow cytometric analysis relative to control; assay type: functional, cell-based
[30] = Toxicity in C57BL/6 mouse assessed as effect on alanine aminotransferase level measured after 7 days; conditions: in vivo, 168 h, time 7 day
[31] = Drug uptake in mouse B16 cells incubated for 24 hrs in presence of 2-deoxyglucose and sodium azide by mito-tracker green based confocal microscopic method; assay type: ADME, cell-based; conditions: b16, 24 h
B16 [32] = assay: Photocytotoxicity against mouse B16 cells assessed as reduction in cell viability irradiated with 640 +/- 15 nm red LED for 4 hrs measured after 24 hrs by MTT assay; assay type: functional, cell-based; conditions: B16, light or radiation study
[33] = Toxicity in C57BL/6 mouse assessed as effect on alanine aminotransferase level measured after 2 days; conditions: in vivo, 48 h, time 2 day
B16 [34] = assay: Induction of morphological changes in mouse B16 cells assessed as chromatin condensation at 200 to 400 nM incubated for 24 hrs by Hoechst 33258 staining based assay; assay type: functional, cell-based; conditions: dose 200-400 nM

For `CC(C)(C)C1=Cc2nc1ccc1[nH]c(cc1S(=O)(=O)NCCOCCO)c1nc(ccc3[nH]c2cc3C(C)(C)C)C(C(C)(C)C)=C1`, the DC50 (HeLa [1]) was 0.015 µM, the Drug uptake [2] was “Active” and the Activity (B16 [3]) was “Active”. For the same compound, the Activity (B16 [4]) was “Active”, the Activity (A-375 [5]) was “Active” and the DC50 (HeLa [6]) was 0.049 µM. The Activity [7] was “Toxic”, the Activity (B16 [8]) was “Active” and the DC50 (A-375 [9]) was 0.324 µM. The Activity (A-375 [10]) was “Active”, the Drug uptake [11] was “Active” and the Activity (A-375 [12]) was “Active”. The DC50 (B16 [13]) was 0.36 µM, the Activity (A-375 [14]) was “Active” and the DC50 (A-375 [15]) was 0.192 µM. For the same compound, the Activity (B16 [16]) was “Active”, the Activity (B16 [17]) was “Active” and the Activity (A-375 [18]) was “Active”. The Activity (A-375 [19]) was “inactive”, the Activity (A-375 [20]) was “Active” and the Activity (A-375 [21]) was “Active”. For the same compound, the Drug uptake [22] was “Not Active”, the Activity [23] was “Non-Toxic” and the Activity (A-375 [24]) was “Active”. For the same compound, the Drug uptake [25] was “Active”, the Activity (A-375 [26]) was “Active” and the Activity (B16 [27]) was “Active”. For the same compound, the Activity (A-375 [28]) was “Active”, the Activity (B16 [29]) was “Active” and the Activity [30] was “Toxic”. The Drug uptake [31] was “Not Active”, the DC50 (B16 [32]) was 0.323 µM and the Activity [33] was “Toxic”. The Activity (B16 [34]) was “Active”.
